# Assay results published in publication PMC8205030, “Methoxy and bromo scans on N-(5-methoxyphenyl) methoxybenzenesulphonamides reveal potent cytotoxic compounds, especially against the human breast adenocarcinoma MCF7 cell line” (Journal of Enzyme Inhibition and Medicinal Chemistry, 2021).
# Where two headings read alike, the source gives them in different places.
# Tests used:
# [1] = system: HeLa (human cervical carcinoma) cells; assay: Cell growth assay (XTT), HeLa; assay type: cell-based; settings: 72 h drug exposure, read-out: Antiproliferative activity IC50 HeLa
# Experimental: (§1) The presence of mycoplasma was routinely checked with MycoAlert kit (Lonza-Cambrex) and only mycoplasma-free cells were used in the experiments. Tumour cell lines were kindly provided by Dr Faustino Mollinedo from Centro de Investigaciones Biológicas Margarita Salas, Madrid, Spain. To determine cell growth, cells in exponential growth phase were seeded (100 µL/well in 96-well plates) with appropriate cell concentration (1.5 × 10^4 cells/mL for MCF7, HeLa and HEK-293 and 3 × 10^4 cells/mL for HT-29) in complete DMEM or RPMI 1640 medium (see above) at 37 °C and 5% CO2 atmosphere. After 24 h incubation, to allow cells to attach to the plates, all compounds were added at 1 µM concentration (10 µL/well in 96-well plates) and the effect on the proliferation was evaluated 72 h post-treatment. Compounds showing antiproliferative effects at tested concentration were selected for IC50 calculation (50% inhibitory concentration compared to the untreated controls) from 10^−5 to 10^−10 M concentration. Nonlinear curves fitting the experimental data were carried out for each compound. […] A freshly prepared mixture solution of XTT labelling reagent with 0.02% (v/v) PMS (N-methyl-dibenzopyrazine methyl sulfate) electron coupling reagent was added to cells (50 µL/well in 96-well plates, the total volume of 160 µL/well) and were incubated during the corresponding time according to each cell line (4 h for MCF7 and HeLa and 6 h for HT-29 and HEK-293) in a humidified atmosphere (37 °C, 5% CO2). The absorbance of the formazan product generated was measured at a test wavelength of 450 nm using a multi-well plate reader (Ultra Evolution, Tecan, Männedorf, Suiza). Compounds were dissolved in DMSO and the final solvent concentrations never exceeded 0.5% (v/v). The control wells included treated cells with 0.5% (v/v) DMSO and the positive control. 10 µM verapamil was included as a control for the HT-29 cell line. Measurements were performed in triplicate, and each experiment was repeated three times.
# [2] = target: T1, microtubular protein isolated from calf brain (Bos taurus, UniProt P81947+Q6B856); assay: Inhibition of tubulin polymerisation (turbidity); assay type: biochemical; settings: for TPI % 10 µM: 10 µM compound, 1.5 mg/mL microtubular protein; for IC50: in vitro tubulin polymerisation inhibition, read-out: TPI IC50
# T1 construct: isolated from calf brain according to the modified Shelanski method; from tissue; host or cells: calf brain
# Experimental: Microtubular protein was isolated from calf brain according to the modified Shelanski method[23]^,[24] by two cycles of temperature-dependent assembly/disassembly and stored at −80 °C. Before each use, protein concentration is determined by Bradford method[25] taking BSA as standard. Tubulin polymerisation was monitored using a Helios α spectrophotometer by measuring the increase in turbidity at 450 nm, caused by a shift from 4 °C to 37 °C, which allows the in vitro microtubular protein to depolymerise and to polymerise, respectively. The assay was carried out in quartz cuvettes containing 1.5 mg/mL microtubular protein and the ligand (except for control cuvette with only DMSO at the same concentration) in a mixture of 0.1 M MES buffer, 1 mM EGTA, 1 mM MgCl2, 1 mM β-ME, and 1.5 mM GTP at pH 6.7 (final volume 500 µL). Cuvettes were preincubated at 20 °C for 30 min, to allow ligand binding to tubulin, and subsequently cooled on ice for 10 min. Then, the experiment starts at 4 °C to establish the initial baseline. The assembly process was initiated by a temperature shift to 37 °C and the turbidity produced by tubulin polymerisation can be measured by an absorbance increase. After reaching a stable plateau, the temperature was switched back to 4 °C to return to the initial absorption values (to confirm the reversible nature of the monitored process and to determine whether or not the microtubular protein has stabilized). The difference in amplitude between the stable plateau and the initial baseline of the curves was taken as the degree of tubulin polymerisation for each experiment. […] All compounds were tested at 10 µM concentration. IC50 values were calculated for compounds that inhibit tubulin polymerisation more than 50% at 10 µM. […] All the measurements were carried out in at least two independent experiments using microtubular protein from different preparations.
# [3] = system: MCF7 (human breast carcinoma) cells; assay: Cell growth assay (XTT), MCF7; assay type: cell-based; settings: for IC50: Homo sapiens, MCF7, 72 h drug exposure, XTT, read-out: Antiproliferative activity IC50 MCF7; for Fold more potent against MCF7 than against HeLa: ratio of IC50 values
# Experimental: as §1
# [4] = system: HT-29 (human colon carcinoma) cells; assay: Cell growth assay (XTT), HT-29, alone or with verapamil; assay type: cell-based
# Experimental: as §1, with “Compounds showing antiproliferative effects at tested concentration were selected for IC50 calculation (50% inhibitory concentration compared to the untreated controls) from 10^−5 to 10^−10 M concentration.” left out
# [5] = Aqueous solubility (saturation shake-flask, UV); assay type: physicochemical; settings: aqueous buffer, thermodynamic from solid, pH 7.0 phosphate buffer, room temperature
# Experimental: The aqueous solubility was determined in a Helios-α UV-320 Spectrophotometer Thermo-Spectronic, Thermo Fischer Scientific, Waltham, MA, USA) using an approach based on the saturation shake-flask method. 1–2 mg of each selected compound was suspended in 300 µL pH 7.0 buffer and stirred for 48 h at room temperature. The resulting mixture was filtered through a […] filter to discard the insoluble residues. A scan between 270 and 400 nm for the tested compound was performed and three wavelengths of maximum absorbance were selected. Calibration curves were performed at these wavelengths and the concentration in the supernatant was measured by UV absorbance. The final value was given as the average of the three measurements.
# [6] = system: HEK293 (human embryonic kidney) cells; assay: Cell growth assay (XTT), non-tumorigenic HEK293; assay type: cell-based; settings: for IC50: Homo sapiens, HEK293, non-tumorigenic cell line, 72 h, XTT, read-out: Antiproliferative activity IC50 HEK293
# Experimental: as §1
# [7] = 72 h, in the presence of Pgp/MDR1 inhibitor verapamil (10 µM), read-out: Antiproliferative activity IC50 HT-29 Verap
# [8] = Homo sapiens, HT-29, 72 h drug exposure, XTT, read-out: Antiproliferative activity IC50 HT-29
# T1 sequence (Q6B856 whole entry): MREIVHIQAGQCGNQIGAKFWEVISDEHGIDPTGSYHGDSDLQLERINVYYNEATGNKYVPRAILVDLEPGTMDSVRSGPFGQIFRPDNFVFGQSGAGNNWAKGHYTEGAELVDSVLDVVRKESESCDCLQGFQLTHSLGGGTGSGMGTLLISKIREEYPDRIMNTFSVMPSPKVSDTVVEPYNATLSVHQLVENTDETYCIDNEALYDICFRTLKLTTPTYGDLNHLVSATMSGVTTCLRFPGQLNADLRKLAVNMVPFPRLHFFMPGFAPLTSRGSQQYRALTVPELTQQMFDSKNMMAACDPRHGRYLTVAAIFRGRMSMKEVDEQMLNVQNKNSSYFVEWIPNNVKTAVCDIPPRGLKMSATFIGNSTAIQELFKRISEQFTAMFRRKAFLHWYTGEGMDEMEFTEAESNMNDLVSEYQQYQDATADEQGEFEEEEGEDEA
# T1 sequence (P81947 whole entry): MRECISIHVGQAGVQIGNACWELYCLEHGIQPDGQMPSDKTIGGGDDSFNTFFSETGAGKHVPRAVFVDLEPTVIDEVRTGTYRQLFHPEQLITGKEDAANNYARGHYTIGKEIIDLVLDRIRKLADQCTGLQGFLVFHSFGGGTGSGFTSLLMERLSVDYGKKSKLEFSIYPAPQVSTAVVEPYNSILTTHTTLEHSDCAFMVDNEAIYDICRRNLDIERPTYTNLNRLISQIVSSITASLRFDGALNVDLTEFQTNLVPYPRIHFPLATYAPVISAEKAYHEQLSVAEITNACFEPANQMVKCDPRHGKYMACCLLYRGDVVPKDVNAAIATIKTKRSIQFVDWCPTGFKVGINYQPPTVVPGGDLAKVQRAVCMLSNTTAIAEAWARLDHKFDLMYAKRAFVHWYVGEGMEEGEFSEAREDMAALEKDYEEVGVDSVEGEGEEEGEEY
melting point,IC50 [1],TPI % 10 µM [2],IC50 [2],IC50 [3],"IC50 [4, 7]","IC50 [4, 8]",solubility at 48 h [5],Compound,Selectivity index HEK293 vs HeLa and MCF7 tumour cells [6],IC50 [6],Fold more potent against MCF7 than against HeLa [3]
76 to 84 °C,407 nM,16%,> 10000 nM,575 nM,750 nM,360 nM,13 µg/mL,"COc1ccc(S(=O)(=O)N(CC#N)c2cc(OC)c(OC)cc2Br)cc1 [Compound 16, N-(2-bromo-4,5-dimethoxyphenyl)-N-(cyanomethyl)-4-methoxybenzenesulphonamide]",–,–,–
114 to 115 °C,227 nM,0%,> 10000 nM,350 nM,–,187 nM,13 µg/mL,"COc1ccc(S(=O)(=O)Nc2cc(OC)ccc2OC)cc1 [Compound 21, N-(2,5-dimethoxyphenyl)-4-methoxybenzenesulphonamide]",–,–,–
105 to 110 °C,177 nM,4%,> 10000 nM,153 nM,305 nM,250 nM,25 µg/mL,"COc1ccc(S(=O)(=O)N(C)c2cc(OC)ccc2OC)cc1 [Compound 22, N-(2,5-dimethoxyphenyl)-4-methoxy-N-methylbenzenesulphonamide]",3- to 5 fold,517 nM,–
118 to 119 °C,45 nM,65%,6900 nM,25 nM,30 nM,72 nM,9 µg/mL,"COc1ccc(S(=O)(=O)Nc2cc(OC)c(Br)cc2OC)cc1 [Compound 23, N-(4-bromo-2,5-dimethoxyphenyl)-4-methoxybenzenesulphonamide]",0.5 to 2 fold,43 nM,–
132 to 133 °C,33 nM,59%,7600 nM,19 nM,160 nM,123 nM,1 µg/mL,"COc1ccc(S(=O)(=O)N(C)c2cc(OC)c(Br)cc2OC)cc1 [Compound 24, N-(4-bromo-2,5-dimethoxyphenyl)-4-methoxy-N-methylbenzenesulphonamide]",3- to 5 fold,91 nM,–
112 to 114 °C,410 nM,3%,> 10000 nM,580 nM,553 nM,360 nM,213 µg/mL,"COc1ccc(S(=O)(=O)Nc2cc(OC)c(OC)cc2OC)cc1 [Compound 32, 4-Methoxy-N-(2,4,5-trimethoxyphenyl)benzenesulphonamide]",–,–,–
137 to 143 °C,413 nM,0%,> 10000 nM,99 nM,577 nM,500 nM,157 µg/mL,"COc1ccc(S(=O)(=O)N(C)c2cc(OC)c(OC)cc2OC)cc1 [Compound 33, 4-Methoxy-N-methyl-N-(2,4,5-trimethoxyphenyl)benzenesulphonamide]",–,–,4–7 fold
173 to 180 °C,500 nM,5%,> 10000 nM,67 nM,415 nM,365 nM,15 µg/mL,"COc1ccc(S(=O)(=O)N(CC#N)c2cc(OC)c(OC)cc2OC)cc1 [Compound 35, N-(cyanomethyl)-4-methoxy-N-(2,4,5-trimethoxyphenyl)benzenesulphonamide]",–,–,4–7 fold
